Assay results from patent publication US6653345B2, “C-C chemokine synthesis inhibitor” (Toray Industries, Inc., priority 1997, dated 2003).

How the values were obtained:
[1] = test system: MCP-1 production of THP-1 cells; test: MCP-1 production of THP-1 cells stimulated with LPS; type: cell-based, human; conditions: for Inhibition rate of MCP-1 production of THP-1 cells: same method as Example 1 (LPS), concentration not given; for MCP-1 production of THP-1 cells (effect in words): 10 μg/ml LPS, compound added before LPS, supernatant 24 hours after stimulation
Description: The action of beraprost (BPS) on MCP-1 production was examined by using human monocyte/macrophage system leukemic cells THP-1. Lipopolysaccharide (LPS: Difco Corp.) reactive substrains were isolated from THP-1 cells (obtained from ATCC Corp.), and cultured in a RPMI 1640 medium (Gibco Corp.) containing 10% FCS in a flask. The THP-1 cells (1×10^5 cells) were dispensed to a 12-well plate, and activated with 10 μg/ml of LPS. BPS was added 5 minutes before LPS stimulation. A cell supernatant was obtained 24 hours after stimulation, and the amount of MCP-1 production was measured by using a human MCP-1 eraser kit (R&D Corp.). The amount of production was calculated based on a calibration curve formed in the range of 31.2 to 2000 pg/ml by using MCP-1 standards contained in the kit.
The actions of prostaglandin I2 (PGI2), prostaglandin E1 (PGE1), and prostaglandin E2 (PGE2) on MCP-1 production were examined by the same method as Example 1. As a result, MCP-1 production was inhibited by PGI2, PGE1, and PGE2 (FIG. 6).
The actions of the compounds shown in the table below on MCP-1 production by the same method as Example 1. The action of each of the compounds was shown by an inhibition rate. As a result, MCP-1 production was inhibited by these compounds (Table 2).

[2] = test system: MCP-1 production of human peripheral blood monocytes; test: MCP-1 production of human peripheral blood monocytes stimulated with TPA; type: cell-based
Description: Monocytes derived from the human peripheral blood were isolated by the same method as Example 3, and stimulated with 25 nM 12-o-tetradecanoylphorbol 13-acetate (TPA) to induce MCP-1 production. The action of BPS on MCP-1 production was studied.
(§1) The action of prostaglandin J2 (PGJ2) on MCP-1 production due to LPS or TPA simulation was studied by the same method as Examples 3 and 8 using monocytes derived from the human peripheral blood. PGJ2 was added 1 minute before stimulation. As a result, MCP-1 production due to stimulation by either LPS or TPA was inhibited by PGJ2(Table 3).

[3] = test system: MCP-1 production of human peripheral blood monocytes; test: MCP-1 production of human peripheral blood-derived monocytes stimulated with LPS; type: cell-based
Text: The action of BPS on MCP-1 production was studied by using human peripheral blood-derived monocytes. The heparinized peripheral blood of a healthy person was superposed on a histo-pack (Sigma Corp.), and centrifuged to obtain a monocyte layer. The thus-obtained monocyte layer was reacted with magnetic beads (Miltenyi Biotec Corp.) of anti—CD3 and anti—CD19, and monocytes were purified by a negative selection method using a MACS column (Miltenyi Biotec Corp.). The thus-obtained monocytes were re-suspended in a RPMI 1640 medium so that 1×10^6 cells/ml of cells were obtained. The cells were dispensed to a 48-well plate, and activated with 10 ng/ml of LPS. BPS was added 5 minutes before LPS stimulation. A cell supernatant was obtained 24 hours after stimulation, and the amount of MCP-1 produced was measured by using a human MCP-1 eraser kit. The amount of production was calculated based on a calibration curve formed in the range of 31.2 to 2000 pg/ml by using MCP-1 standards contained in the kit.
as §1

[4] = test system: MCP-1 mRNA of THP-1 cells; test: Expression of MCP-1 mRNA of THP-1 cells stimulated with LPS; type: cell-based, human; conditions: 10 μg/ml LPS, RNA 24 hours after stimulation
Description: The action of BPS on MCP-1 production was examined by using human monocyte/macrophage system leukemic cells THP-1 and the amount of mRNA expression as an index. LPS reactive substrains were isolated from THP-1 cells, and cultured in a RPMI 1640 medium containing 10% FCS in a flask. THP-1 cells (1×10^6 cells) were dispensed to a petri dish having a diameter of 10 cm, and activated with 10 μg/ml of LPS. BPS was added 5 minutes before LPS stimulation. The total of RNA was extracted with a LiCl-urea solution (6M urea/3M LiCl/5 mM EDTA) 24 hours after stimulation, and dissolved in a TE solution (10 mm Tris-HCl/lmM EDTA, pH 8.0), and then proteins were removed with phenol and chloroform, followed by RNA recovery by ethanol precipitation. RNA was developed by formaldehyde-modified 1% agarose gel, and transferred to a Hybond-N filter (Amersham Corp.), and then MCP-1 mRNA was detected by using a ^32 human MCP-1 probe. The detection was carried out by using a X-ray film or imaging film, and the amount of expression was digitized by BAS2000.

[5] = test system: glomerulonephritis rat model; test: Glomerulonephritis rat model (anti-glomerular basement membrane antibody); type: in vivo
Description: A glomerular basement membrane was administered with an antibody to form a glomerulonephritis rat model. The rats used were 9-week old male WKY rats which were purchased from Japan Charles River. The antibody was obtained by immunizing the rat glomerular basement membrane against rabbits. […] A glomerular lesion such as formation of the crescent was also confirmed by pathological findings, and an irreversible glomerulonephritis model could be formed by administering the antibody to the anti-glomerular basement membrane. MCP-1 production in the kidney was increased with the passage of days after administration of the antibody to produce infiltration of leukocytes such as macrophages and the like. 1 mg/kg of BPS was orally administered on consecutive days to study the action of BPS on MCP-1 production and infiltration of the macrophages. The MCP-1 production was studied by purifying messenger RNA (mRNA) from the rat kidneys, and determining the amount of MCP-1 mRNA expression by quantitative PCR. The macrophage infiltration was studied by immunostaining with an anti-macrophage antibody (ED-1), and then counting the macrophages infiltrated into the glomeruli under a microscope. […] Using the same glomerulonephritis model, the action of BPS on the amount of urea protein was studied 4 days and 7 days after administration of the antibody.

[6] = test system: MCP-3 production of THP-1 cells; test: MCP-3 production of THP-1 cells stimulated with LPS; type: cell-based, human; conditions: 10 μg/ml LPS, supernatant 24 hours after stimulation
Description: The action of BPS on MCP-3 production was examined by using human monocyte/macrophage system leukemic cells THP-1. LPS reactive substrains were isolated from THP-1 cells, and cultured in a RPMI 1640 medium containing 10% FCS in a flask. THP-1 cells (1×10^6 cells) were dispensed to a 12-well plate, and activated with 10 μg/ml of LPS. BPS was added 5 minutes before LPS stimulation. A cell supernatant was obtained 24 hours after stimulation, and the amount of the MCP-3 produced was measured by using a MCP-3 detection method developed by the inventors. The amount of production was calculated based on a calibration curve formed in the range of 0.195 to 12.5 ng/ml by using MCP-3 standards.

[7] = test system: MCP-1 amount in blood; test: MCP-1 amount in LPS-induced blood of streptozotocin diabetic rats; type: in vivo, rat
Description: SD male rats were intravenously administered with 45 mg/kg streptozotocin to induce diabetes. At the eighth week after 2 mg/kg of LPS was administered to the rats to measure the MCP-1 amount in the blood before administration and 3 and 6 hours after administration. BPS was orally administered to the rats 30 minutes before LPS administration. Rats of the same age as the diabetic rat group were used as a normal group.

[8] = test system: streptozotocin-induced diabetic rats; test: Neurotransmission rate of the ischiatic nerve in streptozotocin-induced diabetic rats; type: in vivo, rat
[9] = test system: RANTES production of THP-1 cells; test: RANTES production of THP-1 cells stimulated with LPS; type: cell-based, human; conditions: LPS stimulation, 10 μM PGJ2 (5177 without PGJ2)
Description: THP-1 cells were prepared by the same method as Example 1, and stimulated with LPS to induce RANTES production. The amount of RANTES production was measured by RANTES eraser kit (R&D Corp.). The action of PGJ2 on RANTES production was studied.

SMILES: O=C(O)CCc1cccc2c1O[C@H]1C[C@@H](O)C(/C=C/[C@@H](O)c3ccccc3)[C@@H]21 (stereo partly drawn)
- Inhibition rate of MCP-1 production of THP-1 cells [1]: 58%

SMILES: CC(O)CCc1cccc2c1O[C@H]1C[C@@H](O)C(/C=C/[C@@H](O)C(C)(C)Oc3ccccc3)[C@@H]21 (stereo partly drawn)
- Inhibition rate of MCP-1 production of THP-1 cells [1]: 4%

SMILES: O=C(O)CCc1cccc2c1O[C@H]1C[C@@H](O)C(/C=C/[C@@H](O)C3CCCCC3)[C@@H]21 (stereo partly drawn)
- Inhibition rate of MCP-1 production of THP-1 cells [1]: 85%

SMILES: CC(C)(CO)Cc1cccc2c1O[C@H]1C[C@@H](O)C(/C=C/[C@@H](O)C(C)(C)Oc3ccccc3)[C@@H]21 (stereo partly drawn)
- Inhibition rate of MCP-1 production of THP-1 cells [1]: 28%

SMILES: O=C(O)COc1cccc2c1O[C@H]1C[C@@H](O)C(/C=C/[C@@H](O)c3ccccc3)[C@@H]21 (stereo partly drawn)
- Inhibition rate of MCP-1 production of THP-1 cells [1]: 61%

SMILES: O=C(O)CCc1cccc2c1O[C@H]1C[C@@H](O)C(/C=C/[C@@H](O)CC3CCCCC3)[C@@H]21 (stereo partly drawn)
- Inhibition rate of MCP-1 production of THP-1 cells [1]: 87%

SMILES: CC#CCC(C)[C@H](O)/C=C/[C@@H]1[C@H]2c3cccc(CCCC(=O)O)c3O[C@H]2C[C@H]1O (mixture of isomers) [BPS, beraprost]
- MCP-1 produced ([2]; 25 nM TPA stimulation, 100 nM BPS (224.7 without BPS)): 184 pg/1×10^6 cells
- MCP-1 production of human peripheral blood monocytes (effect in words) ([3]; 10 ng/ml LPS, supernatant 24 hours after stimulation): inhibits dose-dependently
- expression of MCP-1 mRNA of THP-1 cells (effect in words) [4]: inhibits dose-dependently
- MCP-1 production of THP-1 cells (effect in words) [1]: inhibits dose-dependently
- MCP-1 mRNA expression in kidney (effect in words) ([5]; 1 mg/kg BPS oral on consecutive days, 4 days and 7 days after antibody, quantitative PCR): inhibition
- infiltration of macrophage per glomerulus (effect in words) ([5]; 1 mg/kg BPS oral on consecutive days, 4 days and 7 days after antibody, vs distilled water group): significantly inhibited
- amount of urea protein (effect in words) ([5]; 1 mg/kg BPS oral, 4 days and 7 days after administration of the antibody): significantly decreased
- MCP-3 production of THP-1 cells (effect in words) [6]: inhibits dose-dependently
- MCP-1 amount in blood ([7]; BPS oral 30 minutes before 2 mg/kg LPS, 3 hours after): 7.27 ± 2.55 ng/mL
- MCP-1 amount in blood ([7]; BPS oral 30 minutes before 2 mg/kg LPS, 6 hours after): 4.82 ± 4.40 ng/mL
- MCP-1 amount in blood ([7]; BPS oral 30 minutes before LPS, before LPS administration): 0.39 ± 0.13 ng/mL
- decrease in the neurotransmission rate due to diabetes (effect in words) [8]: significantly improved

SMILES: CCCCC[C@H](O)/C=C/[C@H]1[C@H](O)CC(=O)[C@@H]1CCCCCCC(=O)O [PGE1, prostaglandin E1]
- MCP-1 production of THP-1 cells (effect in words) [1]: inhibited

SMILES: CCCCC[C@H](O)/C=C/[C@H]1[C@H](O)CC(=O)[C@@H]1C/C=C\CCCC(=O)O [PGE2, prostaglandin E2]
- MCP-1 production of THP-1 cells (effect in words) [1]: inhibited

SMILES: CCCCC[C@H](O)/C=C/[C@@H]1[C@H]2C/C(=C/CCCC(=O)O)O[C@H]2C[C@H]1O [PGI2, prostaglandin I2]
- MCP-1 production of THP-1 cells (effect in words) [1]: inhibited

SMILES: CCCCC[C@H](O)/C=C/[C@H]1C(=O)C=C[C@@H]1C/C=C\CCCC(=O)O [PGJ2, prostaglandin J2]
- MCP-1 ([2]; TPA 25 nM + PGJ2 10 μM (225 with TPA alone)): 2 pg/10^6 cells
- MCP-1 ([3]; LPS 10 ng/ml + PGJ2 10 μM (21872 with LPS alone)): 6 pg/10^6 cells
- RANTES produced [9]: 2403 pg/5×10^5 cells
